Data as given in patent US9006451B1, “2-anilinonicotinyl based chalcones useful as potential anticancer agents and process for preparation thereof” (Council of Scientific and Industrial Research, priority 2013, dated 2015).
Like-named read-outs stand apart in the source and are kept apart here.

Tests used:
Format in all cases: cell-based
MCF7 = test: NCI 60 human tumor cell line screen (SRB): MCF7
Method: (§1) The in vitro anticancer activity studies for these chalcone analogues were carried out at the National Cancer Institute, USA.
(§2) The chalcone compounds have been tested at NCI, USA, against sixty human tumor cell lines derived from nine cancer types (leukemia, non-small cell lung cancer, colon cancer, CNS cancer, melanoma cancer, ovarian cancer, renal cancer, prostate cancer and breast cancer). For these compounds results are expressed as growth inhibition (GI50) values as per NCI protocol.
(§3) We describe here the development and implementation of a pilot-scale, in vitro, anticancer drug screen utilizing a panel of 60 human tumor cell lines organized into subpanels representing leukemia, melanoma, and cancers of the lung, colon, kidney, ovary, and central nervous system. The ultimate goal of this disease-oriented screen is to facilitate the discovery of new compounds with potential cell line-specific and/or subpanel-specific antitumor activity. In the current screening protocol, each cell line is inoculated onto microtiter plates, then preincubated for 28 hours. Subsequently, test agents are added in five 10-fold dilutions and the culture is incubated for an additional 48 hours. For each test agent, a dose-response profile is generated. End-point determinations of the cell viability or cell growth are performed by in situ fixation of cells, followed by staining with a protein-binding dye, sulforhodamine B (SRB). The SRB binds to the basic amino acids of cellular macromolecules; the solubilized stain is measured spectrophotometrically to determine relative cell growth or viability in treated and untreated cells.

786-0 = test: NCI 60 human tumor cell line screen (SRB): 786-0; conditions: 786-0, Renal, 48 hours, read-out: GI50 values (μM conc.)
Method: as §1, §2, §3

NCI-H522 = test: NCI 60 human tumor cell line screen (SRB): NCI-H522; conditions: NCI-H522, Non-small cell lung, 48 hours, read-out: GI50 values (μM conc.)
Method: as §1, §2, §3

HOP-62 = test: NCI 60 human tumor cell line screen (SRB): HOP-62; conditions: HOP-62, Non-small cell lung, 48 hours, read-out: GI50 values (μM conc.)
Method: as §1, §2, §3

UO-31 = test: NCI 60 human tumor cell line screen (SRB): UO-31; conditions: UO-31, Renal, 48 hours, read-out: GI50 values (μM conc.)
Method: as §1, §2, §3

UACC-257 = test: NCI 60 human tumor cell line screen (SRB): UACC-257; conditions: UACC-257, Melanoma, 48 hours, read-out: GI50 values (μM conc.)
Method: as §1, §2, §3

SF-295 = test: NCI 60 human tumor cell line screen (SRB): SF-295; conditions: SF-295, CNS, 48 hours, read-out: GI50 values (μM conc.)
Method: as §1, §2, §3

OVCAR-4 = test: NCI 60 human tumor cell line screen (SRB): OVCAR-4; conditions: OVCAR-4, Ovarian, 48 hours, read-out: GI50 values (μM conc.)
Method: as §1, §2, §3

T-47D = test: NCI 60 human tumor cell line screen (SRB): T-47D; conditions: T47D, Breast, 48 hours, read-out: GI50 values (μM conc.)
Method: as §1, §2, §3

ACHN = test: NCI 60 human tumor cell line screen (SRB): ACHN; conditions: Renal, 48 hours, read-out: GI50 values (μM conc.)
Method: as §1, §2, §3

CAKI-1 = test: NCI 60 human tumor cell line screen (SRB): CAKI-1; conditions: CAKI-1, Renal, 48 hours, read-out: GI50 values (μM conc.)
Method: as §1, §2, §3

M14 = test: NCI 60 human tumor cell line screen (SRB): M14; conditions: M14, Melanoma, 48 hours, read-out: GI50 values (μM conc.)
Method: as §1, §2, §3

HT29 = test: NCI 60 human tumor cell line screen (SRB): HT29; conditions: HT-29, HT29, Colon, 48 hours, read-out: GI50 values (μM conc.)
Method: as §1, §2, §3

U251 = test: NCI 60 human tumor cell line screen (SRB): U251; conditions: U-251, U251, CNS, 48 hours, read-out: GI50 values (μM conc.)
Method: as §1, §2, §3

SF-539 = test: NCI 60 human tumor cell line screen (SRB): SF-539; conditions: SF-539, CNS, 48 hours, read-out: GI50 values (μM conc.)
Method: as §1, §2, §3

OVCAR-3 = test: NCI 60 human tumor cell line screen (SRB): OVCAR-3; conditions: OVCAR-3, Ovarian, 48 hours, read-out: GI50 values (μM conc.)
Method: as §1, §2, §3

SK-MEL-2 = test: NCI 60 human tumor cell line screen (SRB): SK-MEL-2; conditions: SK-MEL-2, Melanoma, 48 hours, read-out: GI50 values (μM conc.)
Method: as §1, §2, §3

NCI-H226 = test: NCI 60 human tumor cell line screen (SRB): NCI-H226; conditions: NCI-H226, Non-small cell lung, 48 hours, read-out: GI50 values (μM conc.)
Method: as §1, §2, §3

BT-549 = test: NCI 60 human tumor cell line screen (SRB): BT-549; conditions: BT-549, Breast, 48 hours, read-out: GI50 values (μM conc.)
Method: as §1, §2, §3

HCC-2998 = test: NCI 60 human tumor cell line screen (SRB): HCC-2998; conditions: HCC-2998, Colon, 48 hours, read-out: GI50 values (μM conc.)
Method: as §1, §2, §3

HS 578T = test: NCI 60 human tumor cell line screen (SRB): HS 578T; conditions: Breast, 48 hours, read-out: GI50 values (μM conc.)
Method: as §1, §2, §3

KM12 = test: NCI 60 human tumor cell line screen (SRB): KM12; conditions: KM12, Colon, 48 hours, read-out: GI50 values (μM conc.)
Method: as §1, §2, §3

SK-MEL-5 = test: NCI 60 human tumor cell line screen (SRB): SK-MEL-5; conditions: SK-MEL-5, Melanoma, 48 hours, read-out: GI50 values (μM conc.)
Method: as §1, §2, §3

MOLT-4 = test: NCI 60 human tumor cell line screen (SRB): MOLT-4; conditions: MOLT-4, Leukemia, 48 hours, read-out: GI50 values (μM conc.)
Method: as §1, §2, §3

NCI-H460 = test: NCI 60 human tumor cell line screen (SRB): NCI-H460; conditions: NCI-H460, Non-small cell lung, 48 hours, read-out: GI50 values (μM conc.)
Method: as §1, §2, §3

OVCAR-5 = test: NCI 60 human tumor cell line screen (SRB): OVCAR-5; conditions: OVCAR-5, Ovarian, 48 hours, read-out: GI50 values (μM conc.)
Method: as §1, §2, §3

MALME-3M = test: NCI 60 human tumor cell line screen (SRB): MALME-3M; conditions: Melanoma, 48 hours, read-out: GI50 values (μM conc.)
Method: as §1, §2, §3

TK-10 = test: NCI 60 human tumor cell line screen (SRB): TK-10; conditions: TK-10, Renal, 48 hours, read-out: GI50 values (μM conc.)
Method: as §1, §2, §3

[1] = MCF7, Breast, 48 hours, SRB, read-out: GI50 values (μM conc.)
[2] = MCF7, comparison table, read-out: GI50 μM in MCF7

Row | SMILES | GI50 (MCF7; [1]) [µM] | GI50 (MCF7; [2]) [µM] | GI50 (786-0) [µM] | GI50 (NCI-H522) [µM] | GI50 (HOP-62) [µM] | GI50 (UO-31) [µM] | GI50 (UACC-257) [µM] | GI50 (SF-295) [µM] | GI50 (OVCAR-4) [µM] | GI50 (T-47D) [µM] | GI50 (ACHN) [µM] | GI50 (CAKI-1) [µM] | GI50 (M14) [µM] | GI50 (HT29) [µM] | GI50 (U251) [µM] | GI50 (SF-539) [µM] | GI50 (OVCAR-3) [µM] | GI50 (SK-MEL-2) [µM] | GI50 (NCI-H226) [µM] | GI50 (BT-549) [µM] | other results
1 | COc1cc(Nc2ncccc2/C=C/C(=O)c2cc(OC)c(OC)c(OC)c2)cc(OC)c1OC [6v, (E)-1-(3,4,5-Trimethoxyphenyl)-3-(2-(3,4,5-trimethoxyphenylamino)pyridin-3-yl)prop-2-en-1-one] | 3.97 | 3.97 | 5.98 | 7.44 | 12.1 | 5.09 | 8.52 | 4.92 | 9.78 | 5.3 | 5.34 | 4.01 | 8.99 | 5.51 | 4.1 | 12.2 | 7.45 | 8 | 10.8 | 14.3 | GI50 (HCC-2998): 7.74 µM; GI50 (HS 578T): 13.2 µM; GI50 (KM12): 6.5 µM; GI50 (SK-MEL-5): 4.17 µM; GI50 (MOLT-4): 6.72 µM; GI50 (NCI-H460): 3.61 µM; GI50 (OVCAR-5): 16.3 µM; GI50 (MALME-3M): 15.3 µM; GI50 (TK-10): 1.55 µM
2 | COc1cc(C(=O)/C=C/c2cccnc2Nc2ccc(Cl)cc2)cc(OC)c1OC [6ax, (E)-3-(2-(4-Chlorophenylamino)pyridin-3-yl)-1-(3,4,5-trimethoxyphenyl)prop-2-en-1-one] | 1.02 | 1.02 | 1.46 | 1.46 | 1.65 | 1.32 | 1.5 | 1.93 | 1.51 | 1.42 | 1.77 | 1.75 | 1.75 | 1.43 | 1.25 | 1.71 | 1.31 | 2.01 | 1.16 | 1.5 | GI50 (HCC-2998): 1.52 µM; GI50 (HS 578T): 3.08 µM; GI50 (KM12): 1.83 µM; GI50 (SK-MEL-5): 1.5 µM; GI50 (MOLT-4): 2.55 µM; GI50 (NCI-H460): 1.92 µM; GI50 (OVCAR-5): 1.74 µM; GI50 (MALME-3M): 1.91 µM; GI50 (TK-10): 1.87 µM
3 | COc1ccc(Nc2ncccc2/C=C/C(=O)c2cc(OC)c(OC)c(OC)c2)cc1 [6h, (E)-3-(2-(4-Methoxyphenylamino)pyridin-3-yl)-1-(3,4,5-trimethoxyphenyl)prop-2-en-1-one] | 0.69 | 0.69 | 1.69 | 0.36 | 1.78 | 1.12 | 1.53 | 1.85 | 1.62 | 1.67 | 1.55 | 1.52 | 1.65 | 1.6 | 1.27 | 2.04 | 1.64 | 1.47 | 1.37 | 1.58 | GI50 (HCC-2998): 1.68 µM; GI50 (HS 578T): 2.68 µM; GI50 (KM12): 1.69 µM; GI50 (SK-MEL-5): 1.39 µM; GI50 (MOLT-4): 2.09 µM; GI50 (NCI-H460): 2.01 µM; GI50 (OVCAR-5): 1.97 µM; GI50 (MALME-3M): 1.4 µM
